Experimental data published in patent publication US20060183780A1, “Pyrazole compounds useful in the treatment of inflammation” (priority 2003, published 2006).

Biological target: T1, 15-lipoxygenase (Homo sapiens, UniProt P16050)
T1 sequence (P16050 1-662): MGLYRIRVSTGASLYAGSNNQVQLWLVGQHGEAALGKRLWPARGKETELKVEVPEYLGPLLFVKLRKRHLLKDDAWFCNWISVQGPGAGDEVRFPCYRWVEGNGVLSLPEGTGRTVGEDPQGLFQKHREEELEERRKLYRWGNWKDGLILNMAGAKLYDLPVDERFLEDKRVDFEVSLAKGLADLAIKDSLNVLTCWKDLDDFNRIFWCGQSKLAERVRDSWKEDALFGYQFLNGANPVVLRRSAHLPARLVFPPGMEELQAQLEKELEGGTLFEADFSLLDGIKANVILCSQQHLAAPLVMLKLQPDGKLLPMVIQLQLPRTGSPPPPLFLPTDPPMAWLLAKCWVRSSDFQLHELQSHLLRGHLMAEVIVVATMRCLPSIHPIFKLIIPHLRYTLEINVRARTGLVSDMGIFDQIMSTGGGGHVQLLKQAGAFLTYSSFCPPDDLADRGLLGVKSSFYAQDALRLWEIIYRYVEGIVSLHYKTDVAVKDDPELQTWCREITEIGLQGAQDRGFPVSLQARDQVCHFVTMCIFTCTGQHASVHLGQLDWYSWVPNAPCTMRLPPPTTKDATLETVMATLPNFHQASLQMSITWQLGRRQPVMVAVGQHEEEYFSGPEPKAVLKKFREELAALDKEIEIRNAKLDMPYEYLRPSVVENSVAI
Assay: 15-lipoxygenase inhibition, DPPP fluorescence assay with linoleic acid
Type: biochemical
Conditions: biological test method; test concentration not given
Experimental: The assay employed takes advantage of the ability of lipid hydroperoxides to oxidize the non-fluorescent diphenyl-1-pyrenylphosphine (DPPP) to its corresponding fluorescent phosphine oxide. Fluorescence is measured using a dual-scanning microplate spectrofluorometer, Spectramax Gemini, from Molecular Devices. DPPP was purchased from Molecular Probes. Linoleic acid was from Biomol and PBS (phosphate buffered saline) from Gibco Life Technologies. The assay is performed in 96-well plates at room temperature (20-22° C.). The following are added (in the following order) to each well:
a) 35 μl of Dulbecco's phosphate buffered saline (PBS);
b) inhibitor (i.e. compound) or vehicle (0.5 μl DMSO);
c) 10 μL of a 5× concentrated 15-lipoxygenase solution in PBS. The plates are incubated for 5 minutes at room temperature;
d) 5 μl of 2 mM linoleic acid in PBS. The plate is then incubated for 20 minutes at room temperature;
e) the enzymatic reaction is terminated by the addition of 50 μl methanol; and
f) 50 μl of 200 μM DPPP in methanol is added to each well.
After 30 minutes at room temperature, the fluorescence can be read using an excitation wavelength of 358 nm and an emission wavelength of 379 nm.

SMILES	inhibition of 15-lipoxygenase
O=C(Nc1cccnc1)c1ccn(C(=O)c2ccccc2)n1 [Example 1, 1-Benzoyl-1H-pyrazole-3-carboxylic acid pyridin-3-ylamide]	45%
COC(=O)c1ccsc1NC(=O)c1ccn(C(=O)c2cc(F)ccc2C)n1 [Example 8, 2-{[1-(5-Fluoro-2-methylbenzoyl)-1H-pyrazole-3-carbonyl]amino}-thiophene-3-carboxylic acid methyl ester]	50%
CCOc1ccccc1C(=O)n1ccc(C(=O)Nc2cc(C)no2)n1 [Example 14, 1-(2-Ethoxybenzoyl)-1H-pyrazole-3-carboxylic acid (3-methylisoxazol-5-yl)amide]	39%
CCCCCc1ccc(C(=O)n2ccc(C(=O)Nc3ccc(N(C)C)cc3)n2)cc1 [Example 23, 1-(4-Pentylbenzoyl)-1H-pyrazole-3-carboxylic acid (4-dimethylaminophenyl)amide]	44%
CCOc1ccccc1C(=O)n1ccc(C(=O)Nc2cc(Cl)ccc2C#N)n1 [Example 26, 1-(2-Ethoxybenzoyl)-1H-pyrazole-3-carboxylic acid (5-chloro-2-cyanophenyl)amide]	45%
